Test results as given in ChEMBL document CHEMBL4265887 (Bioorg Med Chem Lett, 2018).
Converted amounts (≈) assume the structure as drawn. The source made the active and inactive calls. The calls are words filed in the database; no cut-off is given here.

What was measured:
[1] = tested on: HCT-116; test: Cytotoxicity against human HCT116 cells assessed as reduction in cell viability after 48 hrs by MTT assay; assay type: functional, cell-based; settings: HCT-116, 48 h
[2] = Solubility of the compound in phosphate buffer of pH 7.4 after 24 hrs by RP-HPLC analysis; assay type: physicochemical; settings: for solubility at 24 h: phosphate buffer, pH 7.4
[3] = Solubility of the compound in phosphate buffer of pH 2 after 24 hrs by RP-HPLC analysis; assay type: physicochemical
[4] = tested on: HCT-15; test: Cytotoxicity against human HCT15 cells assessed as reduction in cell viability after 48 hrs by MTT assay; assay type: functional, cell-based; settings: HCT-15, 48 h
[5] = tested on: HCT-116; test: Induction of apoptosis in human HCT116 cells at 100 nM after 72 hrs by Annexin V-FITC staining-based flow cytometric analysis; assay type: functional, cell-based
[6] = tested on: HCT-116; test: Induction of apoptosis in human HCT116 cells at 1 uM after 72 hrs by Annexin V-FITC/propidium iodide staining-based flow cytometric analysis; assay type: functional, cell-based
[7] = biological target: T1, Aurora kinase B (Homo sapiens, UniProt Q96GD4); test: Inhibition of Aurora B phosphorylation at Thr232 residue in human HCT116 cells over 100 nM after 3 hrs by Western blot method; assay type: cell-based
T1 sequence (Q96GD4 whole entry): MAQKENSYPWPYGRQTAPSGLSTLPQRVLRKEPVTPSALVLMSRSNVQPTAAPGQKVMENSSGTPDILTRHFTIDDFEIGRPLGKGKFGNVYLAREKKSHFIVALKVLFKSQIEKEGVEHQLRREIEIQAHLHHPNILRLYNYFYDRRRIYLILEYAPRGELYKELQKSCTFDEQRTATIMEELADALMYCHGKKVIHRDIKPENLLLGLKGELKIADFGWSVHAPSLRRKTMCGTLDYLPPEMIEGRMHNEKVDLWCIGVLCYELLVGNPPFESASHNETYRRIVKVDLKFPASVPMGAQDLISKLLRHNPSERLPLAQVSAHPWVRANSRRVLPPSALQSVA

[8] = biological target: T2, Aurora kinase A (Homo sapiens, UniProt O14965); test: Inhibition of recombinant Aurora A (unknown origin) using TAMRA-PKAtide as substrate after 30 mins by fluorescence polarization assay
T2 sequence (O14965 whole entry): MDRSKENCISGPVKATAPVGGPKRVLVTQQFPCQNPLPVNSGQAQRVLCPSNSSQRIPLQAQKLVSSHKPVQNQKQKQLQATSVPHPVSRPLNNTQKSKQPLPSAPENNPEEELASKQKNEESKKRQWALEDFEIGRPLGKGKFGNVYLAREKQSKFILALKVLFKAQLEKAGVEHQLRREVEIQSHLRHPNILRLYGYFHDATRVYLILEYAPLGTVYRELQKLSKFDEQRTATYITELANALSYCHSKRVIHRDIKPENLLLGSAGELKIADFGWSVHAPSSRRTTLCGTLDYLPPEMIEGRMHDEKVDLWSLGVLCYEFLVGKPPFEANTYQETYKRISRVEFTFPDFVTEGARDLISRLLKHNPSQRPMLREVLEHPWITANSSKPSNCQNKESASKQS

[9] = biological target: T1, Aurora kinase B; test: Inhibition of recombinant Aurora B (unknown origin) using TAMRA-PKAtide as substrate after 1 hr by fluorescence polarization assay
[10] = tested on: HCT-116; test: Inhibition of cytokinesis in human HCT116 cells at 100 nM after 24 hrs by propidium iodide/RNase staining-based flow cytometric analysis; assay type: functional, cell-based
[11] = tested on: HCT-116; test: Inhibition of cytokinesis in human HCT116 cells at 1 uM after 24 hrs by propidium iodide/RNase staining-based flow cytometric analysis; assay type: functional, cell-based

Row | solubility at 24 h [2] | solubility at 24 h [3] | SMILES | IC50 [1] | IC50 [4] | also measured
1 | 4.8 µM (≈ 2.15 µg/mL) | 3.7 µM (≈ 1.66 µg/mL) | CNC(=O)Nc1sc2c(C3CC3)cc(NS(=O)(=O)c3ccn(C)n3)cc2c1C(N)=O | 1190 nM | – | –
2 | 3.9 µM (≈ 1.59 µg/mL) | 1.1 µM (≈ 0.449 µg/mL) | CNC(=O)Nc1sc2c(C)cc(NS(=O)(=O)c3ccco3)cc2c1C(N)=O | 950 nM | 1510 nM | –
3 | – | – | CC(C)c1cc(NS(C)(=O)=O)cc2c(C(N)=O)c(NC(=O)C3CC3)sc12 | 1390 nM | – | –
4 | – | – | CNC(=O)Nc1sc2c(C)cc(NS(=O)(=O)c3ccn(C)n3)cc2c1C(N)=O | 9780 nM | > 10000 nM | –
5 | 98.2 µM (≈ 46.9 µg/mL) | 5.8 µM (≈ 2.77 µg/mL) | O=C(O)c1ccc(Nc2ncc3c(n2)-c2ccc(Cl)cc2C(c2c(F)cccc2F)=NC3)cc1 [MLN-8054] | 850 nM | – | Activity [5]: inactive; Activity [6]: inactive; inhibition [7]: Active
6 | 3 µM (≈ 1.24 µg/mL) | 2.8 µM (≈ 1.16 µg/mL) | CCCS(=O)(=O)Nc1cc(C(C)C)c2sc(NC(=O)NC)c(C(N)=O)c2c1 | 770 nM | 4440 nM | –
7 | – | – | CC(C)c1cc(NS(=O)(=O)c2cccs2)cc2c(C(N)=O)c(NC(=O)C3CC3)sc12 | 4580 nM | – | –
8 | – | – | CC(C)c1cc(NS(=O)(=O)c2ccccc2)cc2c(C(N)=O)c(NC(=O)C3CC3)sc12 | 1390 nM | – | IC50 [8]: 827 nM; IC50 [9]: 417 nM
9 | – | – | CNC(=O)Nc1sc2c(C)cc(NS(=O)(=O)c3ccc(C)s3)cc2c1C(N)=O | 2360 nM | – | –
10 | 12.8 µM (≈ 5.43 µg/mL) | 5.3 µM (≈ 2.25 µg/mL) | CNC(=O)Nc1sc2c(C)cc(NS(=O)(=O)c3cccs3)cc2c1C(N)=O | 790 nM | 2190 nM | –
11 | 3.6 µM (≈ 1.66 µg/mL) | 2.6 µM (≈ 1.2 µg/mL) | CNC(=O)Nc1sc2c(C(C)C)cc(NS(=O)(=O)c3cccc(C)c3)cc2c1C(N)=O | 470 nM | 1680 nM | IC50 [8]: 95 nM; IC50 [9]: 46 nM; Activity [5]: Active; Cytokinesis inhibition (active/inactive call) [10]: Active; Activity [6]: Active; Cytokinesis inhibition (active/inactive call) [11]: Active
12 | – | – | Cc1cccc(S(=O)(=O)Nc2cc(C(C)C)c3sc(NC(=O)C4CC4)c(C(N)=O)c3c2)c1 | 9010 nM | – | –
13 | – | – | CNC(=O)Nc1sc2c(C(C)C)cc(NS(=O)(=O)c3ccc(C)cc3)cc2c1C(N)=O | 3800 nM | – | –
14 | 1.1 µM (≈ 0.496 µg/mL) | – | CNC(=O)Nc1sc2c(C3CC3)cc(NS(=O)(=O)c3cccs3)cc2c1C(N)=O | 1530 nM | – | –
15 | – | – | CCS(=O)(=O)Nc1cc(C(C)C)c2sc(NC(=O)C3CC3)c(C(N)=O)c2c1 | 2360 nM | – | –
16 | 1.4 µM (≈ 0.653 µg/mL) | 1.6 µM (≈ 0.747 µg/mL) | CNC(=O)Nc1sc2c(C(C)C)cc(NS(=O)(=O)c3cc(C)cs3)cc2c1C(N)=O | 340 nM | 1680 nM | IC50 [8]: 80 nM; IC50 [9]: 48 nM; Activity [5]: Active; Cytokinesis inhibition (active/inactive call) [10]: Active; Activity [6]: Active; Cytokinesis inhibition (active/inactive call) [11]: Active
17 | – | – | CNC(=O)Nc1sc2c(C(C)C)cc(NS(C)(=O)=O)cc2c1C(N)=O | 1470 nM | 4180 nM | –

Row | solubility at 24 h [2] | solubility at 24 h [3] | SMILES | IC50 [1] | IC50 [4] | also measured
18 | 4.6 µM (≈ 1.96 µg/mL) | 4.3 µM (≈ 1.83 µg/mL) | CCCCS(=O)(=O)Nc1cc(C(C)C)c2sc(NC(=O)NC)c(C(N)=O)c2c1 | 950 nM | 4040 nM | –
19 | – | 120 µM (≈ 55.8 µg/mL) | Cc1cc(Nc2cc(N3CCN(C)CC3)nc(Sc3ccc(NC(=O)C4CC4)cc3)n2)[nH]n1 [TOZASERTIB] | – | – | solubility ([2]; buffer, pH 7.4, 24 h): 120 µM (≈ 55.8 µg/mL)
20 | 13.6 µM (≈ 5.42 µg/mL) | 11.4 µM (≈ 4.54 µg/mL) | CCS(=O)(=O)Nc1cc(C(C)C)c2sc(NC(=O)NC)c(C(N)=O)c2c1 | 600 nM | 4980 nM | IC50 [8]: 24 nM; IC50 [9]: 38 nM; Activity [5]: inactive; Cytokinesis inhibition (active/inactive call) [10]: Active; Activity [6]: inactive; Cytokinesis inhibition (active/inactive call) [11]: Active
21 | – | – | CC(C)c1cc(NS(=O)(=O)c2ccn(C)n2)cc2c(C(N)=O)c(NC(=O)C3CC3)sc12 | 760 nM | 1260 nM | –
22 | 6.7 µM (≈ 2.92 µg/mL) | 3.3 µM (≈ 1.44 µg/mL) | CNC(=O)Nc1sc2c(C(C)C)cc(NS(=O)(=O)c3ccco3)cc2c1C(N)=O | 1300 nM | – | –
23 | – | – | CCCS(=O)(=O)Nc1cc(C(C)C)c2sc(NC(=O)C3CC3)c(C(N)=O)c2c1 | 6200 nM | – | –
24 | – | – | CNC(=O)Nc1sc2c(C(C)C)cc(NS(=O)(=O)C(C)C)cc2c1C(N)=O | 2580 nM | 8660 nM | –
25 | – | – | Cc1cc(Nc2cc(N3CCN(C)CC3)nc(Sc3ccc(NC(=O)C4CC4)cc3)n2)n[nH]1 [TOZASERTIB] | 450 nM | 1230 nM | Cytokinesis inhibition (active/inactive call) [10]: Active; Cytokinesis inhibition (active/inactive call) [11]: Active
26 | – | – | CNC(=O)Nc1sc2c(C(C)C)cc(NS(=O)(=O)c3ccc(Cl)cc3)cc2c1C(N)=O | 7000 nM | – | –
27 | – | – | CNC(=O)Nc1sc2c(C(C)C)cc(NS(=O)(=O)c3ccccc3C)cc2c1C(N)=O | 1770 nM | – | –
28 | – | – | CNC(=O)Nc1sc2c(C(C)C)cc(NS(=O)(=O)c3ccccc3Cl)cc2c1C(N)=O | 3410 nM | – | –
29 | 6.2 µM (≈ 2.79 µg/mL) | 4.2 µM (≈ 1.89 µg/mL) | CNC(=O)Nc1sc2c(C(C)C)cc(NS(=O)(=O)c3ccn(C)n3)cc2c1C(N)=O | 560 nM | 6130 nM | IC50 [8]: 5 nM; IC50 [9]: 17 nM; Activity [5]: Active; Cytokinesis inhibition (active/inactive call) [10]: Active; Activity [6]: Active; Cytokinesis inhibition (active/inactive call) [11]: Active
30 | – | – | CNC(=O)Nc1sc2c(C(C)C)cc(NS(=O)(=O)c3ccc(C)s3)cc2c1C(N)=O | 2330 nM | 4100 nM | –
31 | – | – | CCCNS(=O)(=O)Nc1cc(C(C)C)c2sc(NC(=O)NC)c(C(N)=O)c2c1 | 410 nM | 4710 nM | IC50 [8]: 21 nM; IC50 [9]: 11 nM; Activity [5]: inactive; Cytokinesis inhibition (active/inactive call) [10]: Active; Activity [6]: inactive; Cytokinesis inhibition (active/inactive call) [11]: Active
32 | – | – | CC(C)c1cc(NS(=O)(=O)C2CCCCC2)cc2c(C(N)=O)c(NC(=O)C3CC3)sc12 | 9980 nM | – | –
33 | 1.7 µM (≈ 0.759 µg/mL) | 1.3 µM (≈ 0.581 µg/mL) | CNC(=O)Nc1sc2c(C(C)C)cc(NS(=O)(=O)c3ccccc3)cc2c1C(N)=O | 310 nM | 890 nM | IC50 [8]: 37 nM; IC50 [9]: 35 nM; Activity [5]: Active; Cytokinesis inhibition (active/inactive call) [10]: Active; Activity [6]: Active; Cytokinesis inhibition (active/inactive call) [11]: Active
34 | – | – | CNC(=O)Nc1sc2c(C(C)C)cc(NS(=O)(=O)c3cccc(Cl)c3)cc2c1C(N)=O | 1020 nM | 5660 nM | –
